Data taken from patent US6461997B1, “Triazole sulfones having herbicidal activity” (Monsanto Technology LLC, priority 1999, dated 2002).

Columns and labels:
[1] = system: PANMI (wild proso millet); experiment: Pre-emergence herbicidal activity, warm season; format: in vivo, Panicum miliaceum; conditions: GR80 = lowest tested rate (300, 100, 30, 10 g/ha) with 80% or greater inhibition; approx. 14 days after treating; 30/21° C.
Method in brief: (§1)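 Activity is expressed as the rate giving 80% inhibition, with 300, 100, 30 and 10 g/ha typically tested. An asterisk marks activity short of 80% at the top rate. Warm-season grasses were held at 30/21 °C; cool-season blackgrass and wild buckwheat at 18/13 °C; scoring at about 14 days.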

[2] = system: SORHA (johnsongrass (seedling)); experiment: Pre-emergence herbicidal activity, warm season; format: in vivo, Sorghum halepense; conditions: GR80 = lowest tested rate (300, 100, 30, 10 g/ha) with 80% or greater inhibition; approx. 14 days after treating; 30/21° C.
Method in brief: (§2)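 GR80 values derive from percent inhibition relative to untreated plants, read roughly 14 days after sowing and pre-emergence soil-surface treatment (compound in 50:50 acetone/water; rates typically 10, 30, 100, 300 g/ha). Warm-season weeds grew at 30/21° C day/night, cool-season ones at 18/13° C; an asterisk marks activity without reaching 80% at the highest rate.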

[3] = system: SETFA (giant foxtail); experiment: Pre-emergence herbicidal activity, warm season; format: in vivo, Setaria faberi; conditions: GR80 = lowest tested rate (300, 100, 30, 10 g/ha) with 80% or greater inhibition; approx. 14 days after treating; 30/21° C.
Method in brief: as §2

[4] = system: PANDI (fall panicum); experiment: Pre-emergence herbicidal activity, warm season; format: in vivo, Panicum dichotomiflorum; conditions: GR80 = lowest tested rate (300, 100, 30, 10 g/ha) with 80% or greater inhibition; approx. 14 days after treating; 30/21° C.
Method: (§3) Tables 5 to 8 summarize results of tests conducted as described below to determine the pre-emergence herbicidal activity, in the form of a GR80 value, of illustrative compounds of this invention. […] Compounds of the invention were typically applied at rates of 300, 100, 30, and 10 g/ha. Where herbicidal activity was evident but 80% inhibition was not achieved at the highest rate tested, an asterisk (*) is shown in the following tables.
(§4) The pre-emergence tests were conducted by the following procedure. Topsoil was sieved to pass through a 1.27 cm screen. Fertilizer was added to the topsoil and the mixture was then sterilized by heating. The topsoil mixture was placed in a pot and compacted to a depth of 1.0 to 1.25 cm from the top of the pot. Seeds of each of several monocotyledonous and dicotyledonous annual plant species were placed on top of the soil. Additional soil was subsequently placed over the seeds to level-fill the pot. A known amount of each test compound dissolved or suspended in an appropriate organic solvent was diluted with a 50:50 mix of acetone and water and applied to the surface of the soil. After treatment the plants were placed in a greenhouse where they received 0.64 cm of overhead irrigation. All subsequent watering consisted of a light overhead mist and/or subirrigation as needed for germination and growth. Tables 5 and 6 below relate to warm season plant species which were placed after pre-emergence treatment in a greenhouse with a 30/21° C. day/night temperature regime. Tables 7 and 8 below relates to cool season plant species placed after pre-emergence treatment in a greenhouse or growth chamber with an 18/13° C. day/night temperature regime.
(§5) Approximately 14 days after planting and treating, the plants were observed and herbicidal efficacy recorded as percent inhibition by comparison with untreated plants.
(§6) The plant species usually regarded as weeds which were utilized in the tests are identified in the tables below according to the following legend, in which “d” indicates a dicotyledonous species and “m” a monocotyledonous species. All monocotyledonous species included in the tests herein are grasses.

[5] = system: GALAP (catchweed bedstraw); experiment: Pre-emergence herbicidal activity, cool season; format: in vivo, Galium aparine; conditions: lowest tested rate with 80% or greater inhibition; rates 300, 100, 30, 10 g/ha; about 14 days
Method in brief: as §2

[6] = system: POLCO (wild buckwheat); experiment: Pre-emergence herbicidal activity, cool season; format: in vivo, Polygonum convolvulus; conditions: lowest tested rate with 80% or greater inhibition; rates 300, 100, 30, 10 g/ha; about 14 days
Method in brief: as §1

[7] = system: SINAR (wild mustard); experiment: Pre-emergence herbicidal activity, cool season; format: in vivo, Sinapis arvensis; conditions: lowest tested rate with 80% or greater inhibition; rates 300, 100, 30, 10 g/ha; about 14 days
Method in brief: as §2

[8] = system: VERPE (creeping speedwell); experiment: Pre-emergence herbicidal activity, cool season; format: in vivo, Veronica persicaria; conditions: lowest tested rate with 80% or greater inhibition; rates 300, 100, 30, 10 g/ha; about 14 days
Method in brief: as §2

[9] = system: SASKR (russian thistle); experiment: Pre-emergence herbicidal activity, cool season; format: in vivo, Salsola kali; conditions: lowest tested rate with 80% or greater inhibition; rates 300, 100, 30, 10 g/ha; about 14 days
Method in brief: as §2

[10] = system: STEME (common chickweed); experiment: Pre-emergence herbicidal activity, cool season; format: in vivo, Stellaria media; conditions: lowest tested rate with 80% or greater inhibition; rates 300, 100, 30, 10 g/ha; about 14 days
Method in brief: as §2

[11] = system: LAMPU (purple deadnettle); experiment: Pre-emergence herbicidal activity, cool season; format: in vivo, Lamium purpureum; conditions: lowest tested rate with 80% or greater inhibition; rates 300, 100, 30, 10 g/ha; about 14 days
Method in brief: as §2

[12] = system: SETVI (green foxtail); experiment: Pre-emergence herbicidal activity, cool season; format: in vivo, Setaria viridis; conditions: GR80 = lowest tested rate (300, 100, 30, 10 g/ha) with 80% or greater inhibition; approx. 14 days after treating; 18/13° C.
Method in brief: as §2

[13] = system: AGSST (creeping bentgrass); experiment: Pre-emergence herbicidal activity, cool season; format: in vivo, Agrostis stolonifera; conditions: GR80 = lowest tested rate (300, 100, 30, 10 g/ha) with 80% or greater inhibition; approx. 14 days after treating; 18/13° C.
Method in brief: as §2

[14] = system: ABUTH (velvetleaf); experiment: Pre-emergence herbicidal activity, warm season; format: in vivo, Abutilon theophrasti; conditions: GR80 = lowest tested rate (300, 100, 30, 10 g/ha) with 80% or greater inhibition; approx. 14 days after treating; 30/21° C.
Method: as §3, §4, §5, §6

[15] = system: SOLNI (black nightshade); experiment: Pre-emergence herbicidal activity, warm season; format: in vivo, Solanum nigrum; conditions: GR80 = lowest tested rate (300, 100, 30, 10 g/ha) with 80% or greater inhibition; approx. 14 days after treating; 30/21° C.
Method in brief: as §2

[16] = system: CHEAL (common lambsquarters); experiment: Pre-emergence herbicidal activity, warm season; format: in vivo, Chenopodium album; conditions: GR80 = lowest tested rate (300, 100, 30, 10 g/ha) with 80% or greater inhibition; approx. 14 days after treating; 30/21° C.
Method in brief: as §2

[17] = system: POROL (common purslane); experiment: Pre-emergence herbicidal activity, warm season; format: in vivo, Portulaca oleracea; conditions: GR80 = lowest tested rate (300, 100, 30, 10 g/ha) with 80% or greater inhibition; approx. 14 days after treating; 30/21° C.
Method in brief: as §2

[18] = system: ECHCG (barnyardgrass); experiment: Pre-emergence herbicidal activity, warm season; format: in vivo, Echinochloa crus-galli; conditions: GR80 = lowest tested rate (300, 100, 30, 10 g/ha) with 80% or greater inhibition; approx. 14 days after treating; 30/21° C.
Method in brief: as §2

[19] = system: SORVU (shattercane); experiment: Pre-emergence herbicidal activity, warm season; format: in vivo, Sorghum vulgare; conditions: GR80 = lowest tested rate (300, 100, 30, 10 g/ha) with 80% or greater inhibition; approx. 14 days after treating; 30/21° C.
Method: as §3, §4, §5, §6

[20] = system: BRAPP (broadleaf signalgrass); experiment: Pre-emergence herbicidal activity, warm season; format: in vivo, Brachiaria platyphylla; conditions: GR80 = lowest tested rate (300, 100, 30, 10 g/ha) with 80% or greater inhibition; approx. 14 days after treating; 30/21° C.
Method: as §3, §4, §5, §6

[21] = system: DIGSA (large crabgrass); experiment: Pre-emergence herbicidal activity, warm season; format: in vivo, Digitaria sanguinalis; conditions: GR80 = lowest tested rate (300, 100, 30, 10 g/ha) with 80% or greater inhibition; approx. 14 days after treating; 30/21° C.
Method in brief: as §1

[22] = system: ALOMY (blackgrass); experiment: Pre-emergence herbicidal activity, cool season; format: in vivo, Alopecurus myosuroides; conditions: GR80 = lowest tested rate (300, 100, 30, 10 g/ha) with 80% or greater inhibition; approx. 14 days after treating; 18/13° C.
Method in brief: as §1

[23] = system: LOLMG (annual ryegrass); experiment: Pre-emergence herbicidal activity, cool season; format: in vivo, Lolium multiflorum; conditions: GR80 = lowest tested rate (300, 100, 30, 10 g/ha) with 80% or greater inhibition; approx. 14 days after treating; 18/13° C.
Method: as §3, §4, §5, §6

SMILES | Pre-emergence activity (GR80) PANMI [1] [g/ha] | Pre-emergence activity (GR80) SORHA [2] [g/ha] | Pre-emergence activity (GR80) SETFA [3] [g/ha] | Pre-emergence activity GR80, GALAP [5] | Pre-emergence activity GR80, POLCO [6] [g/ha] | Pre-emergence activity GR80, SINAR [7] | Pre-emergence activity GR80, VERPE [8] | Pre-emergence activity GR80, SASKR [9] | Pre-emergence activity GR80, STEME [10] | Pre-emergence activity GR80, LAMPU [11] | Pre-emergence activity (GR80) SETVI [12] [g/ha] | Pre-emergence activity (GR80) AGSST [13] [g/ha] | Pre-emergence activity (GR80) DIGSA [21] [g/ha] | further results
CCN(CC)C(=S)n1cnc(S(=O)(=O)C(F)(F)Br)n1 [Example 46] | 300 | 300 | 300 | 300 g/ha | 300 | [empty] | 100 g/ha | 300 g/ha | 300 g/ha | 100 g/ha | 300 | 300 | – | Pre-emergence activity (GR80) PANDI [4]: 300 g/ha
CCSC(F)(F)S(=O)(=O)c1ncn(C(=O)N(C)C2CCCCC2)n1 [Example 55] | 100 | 300 | 300 | [empty] | 300 | [empty] | [empty] | [empty] | [empty] | [empty] | 300 | 300 | 300 | Pre-emergence activity (GR80) ABUTH [14]: 300 g/ha; Pre-emergence activity (GR80) SOLNI [15]: 300 g/ha; Pre-emergence activity (GR80) CHEAL [16]: 300 g/ha; Pre-emergence activity (GR80) POROL [17]: 300 g/ha; Pre-emergence activity (GR80) ECHCG [18]: 300 g/ha; Pre-emergence activity (GR80) SORVU [19]: 300 g/ha; Pre-emergence activity (GR80) BRAPP [20]: 300 g/ha
CCSC(F)(F)S(=O)(=O)c1ncn(C(=O)N(C)OC)n1 [Example 57] | – | – | – | 300 g/ha | 100 | 30 g/ha | 10 g/ha | 30 g/ha | 30 g/ha | [empty] | 300 | – | 300 | Pre-emergence activity (GR80) ALOMY [22]: 300 g/ha; Pre-emergence activity (GR80) LOLMG [23]: 30 g/ha
